Data taken from patent US8716282B2, “Imidazo[1,2-b]pyridazine derivatives and their use as PDE10 inhibitors” (Janssen Pharmaceutica NV, priority 2009, dated 2014).
≈ marks a conversion by molar mass, not a printed value. Like-named read-outs stand apart in the source and are kept apart here.

What was measured:
[1] = Solubility as a function of pH at 20° C.; type: physicochemical
Description: After removing the undissolved compound (0.45 μm Millex LCR filter), the concentration in the solution was determined using UV spectrometry. The pH of the solution was measured.

[2] = Intrinsic dissolution rate (IDR) of miniaturized pellets; type: physicochemical; details: 37.0±0.5° C.; for Average IDR: 0.01M HCl at 100 rpm, miniaturized pellets; for intrinsic dissolution rate (IDR): pellets of 0.0754 cm^2
Description: The intrinsic dissolution rate was measured using a DISS Profiler™ system consisting in both a mini-bath and UV fiber optic (5 mm pathlength) probes connected to a photodiode array (PDA) spectrophotometer (from pION Inc). Each pellet prepared were positioned in individual vessels. The intrinsic dissolution test was performed using 0.01 M HCl (20 mL) maintained at 37.0±0.5° C. with a stirring rate of 100 rpm. The concentration measurements were performed using UV detection at 326 nm. The intrinsic dissolution rate (IDR) was calculated by dividing the dissolution rate by the exposure area of pellet (0.0754 cm^2).

[3] = test system: novel object recognition in female hooded-Lister rats; assay: Object recognition test (NOR), sub-chronic PCP; type: in vivo, rat; details: for effects of acute treatment in the NOR task: compound 1 0.3-1.0 mg/kg, PQ10 1.0 mg/kg, oral, 30 min prior to testing
Description: 60 female hooded-Lister rats (Charles River, UK) were used as subjects for these studies and weighed 248 g±20 g. Rats were allowed at least a 7-day acclimatization period to the animal unit prior to commencement of experimentation. Rats were housed in groups of 5 under standard laboratory conditions under a 12 h light:dark cycle, lights on at 0700 h. All testing was carried out in the light phase. Food and water were freely provided. All experiments were conducted in accordance with the Animals Scientific Procedures Act, U.K. 1986 and were approved by the University of Bradford ethical review panel.
40 mg of test compound was dissolved in 5 ml of 40% hydroxypropyl β-cyclodextrin (HPBC) solution. The solution was sonicated until completely dissolved. 2 ml of sterile water was added and the pH measured and adjusted with NaOH solution (0.1N) to obtain pH ˜4. Finally, sterile water was added to a final volume of 10 ml. This stock solution was then diluted in 20% HPBC to obtain the final concentrations.
100 mg of PQ10 was dissolved in a 40% HPBC solution and 8 mg of tartaric acid. The solution was sonicated until completely dissolved. 5 ml of sterile water was added and the pH measured and adjusted with NaOH solution (0.1N) to obtain pH ˜4. Finally sterile water was added to a final volume of 10 ml.
Test compound was administered at doses of 0.3 and 1.0 mg/kg via the oral route 30 min prior to testing.
PQ10 was administered at a dose of 1.0 mg/kg via the oral route 30 min prior to testing.
Certain pre-clinical tests allow the observation of relatively subtle cognitive deficits in the rat that resemble cognitive symptoms in subjects with schizophrenia. The cognitive deficits observed are seen in behaviours such as episodic memory, which can be measured by recognition tasks such as the novel object recognition (NOR) paradigm. A recognition memory task allows the comparison between presented stimuli and previously stored information. […] Object recognition in rats can be measured as the difference in time spent exploring the familiar and the new object. […]

[4] = Adsorption-desorption (dynamic vapor sorption); type: physicochemical; details: for weight loss during the initial drying step: 60 min. under dry nitrogen at 25° C.; for hygroscopic behavior / physical form during the DVS test: DVS, 25° C., RH 0-95%
[5] = test system: apomorphine-induced stereotypy in rats; assay: Apomorphine-induced stereotypy in rats (APO); type: in vivo, rat; details: n.d. = found not active at threshold dose 2.5 mg/kg, or 10 mg/kg if (a)
Description: Apomorphine (1.0 mg/kg, i.v.)-induced stereotypy (compulsive sniffing, licking, chewing) was scored every 5 min over the first hour after injection of apomorphine, following a 1 hour interval pre-treatment with the test compound. The score system was: (3) pronounced, (2) moderate, (1) slight, and (0) absent.

[6] = target: T1, Rat recombinant PDE10A (rPDE10A2) (Rattus norvegicus, UniProt Q9QYJ6); assay: In vitro assay PDE10A (SPA, 3H-cAMP); type: biochemical; details: Table 3; −log IC50 expressed in mol/L
T1 construct: inferred from metal chelate purification; made in house; host or cells: Sf9 insect cells, baculovirus
T1 sequence (Q9QYJ6 1-794): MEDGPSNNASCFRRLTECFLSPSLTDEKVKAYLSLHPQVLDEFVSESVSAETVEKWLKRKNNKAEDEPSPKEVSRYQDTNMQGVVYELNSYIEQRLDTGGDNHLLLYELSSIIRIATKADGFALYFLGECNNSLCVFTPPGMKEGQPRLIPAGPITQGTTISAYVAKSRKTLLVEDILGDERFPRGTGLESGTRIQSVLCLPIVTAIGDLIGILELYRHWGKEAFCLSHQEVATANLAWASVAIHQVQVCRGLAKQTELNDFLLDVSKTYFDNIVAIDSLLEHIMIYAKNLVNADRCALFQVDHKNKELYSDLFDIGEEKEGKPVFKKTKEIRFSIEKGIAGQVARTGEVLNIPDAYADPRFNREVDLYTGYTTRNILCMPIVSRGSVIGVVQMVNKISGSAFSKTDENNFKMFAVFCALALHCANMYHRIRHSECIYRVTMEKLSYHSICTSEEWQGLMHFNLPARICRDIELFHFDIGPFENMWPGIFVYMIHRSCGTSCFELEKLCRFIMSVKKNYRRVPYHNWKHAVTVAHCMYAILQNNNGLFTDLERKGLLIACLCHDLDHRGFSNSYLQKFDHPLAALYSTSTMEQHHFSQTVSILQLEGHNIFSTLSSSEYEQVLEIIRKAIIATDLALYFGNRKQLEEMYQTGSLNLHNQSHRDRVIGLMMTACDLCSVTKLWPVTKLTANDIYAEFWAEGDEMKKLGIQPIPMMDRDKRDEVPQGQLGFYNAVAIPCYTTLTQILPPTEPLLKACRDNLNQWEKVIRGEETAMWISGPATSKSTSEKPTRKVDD
Description: Rat recombinant PDE10A (rPDE10A2) was expressed in Sf9 cells using a recombinant rPDE10A baculovirus construct. Cells were harvested after 48 h of infection and the rPDE10A protein was purified by metal chelate chromatography on Ni-sepharose 6FF. Tested compounds were dissolved and diluted in 100% DMSO to a concentration 100 fold of the final concentration in the assay. […] 10 μl of rPDE10A enzyme in incubation buffer was added and the reaction was started by addition of 10 μl substrate to a final concentration of 60 nM cAMP and 0.008 μCi ^3H-cAMP. The reaction was incubated for 60 minutes at room temperature. […] After sedimentation of the beads during 30 minutes the radioactivity was measured in a Perkin Elmer Topcount scintillation counter and results were expressed as cpm. For blanc values the enzyme was omitted from the reaction and replaced by incubation buffer. Control values were obtained by addition of a final concentration of 1% DMSO instead of compound. The same assay principle is applied for the measurement of the affinity of the compound for other members of the PDE family with appropriate modifications in incubation buffer, substrate concentration, incubation time and stop solution.

**Q.** Which solubility ([1]; aqueous buffer, thermodynamic from solid, borate-KCl—NaOH buffer pH 9, pH of solution 8.9, anhydrous free base) does the source give for COCCc1ccc(-c2c(C)nc3c(N4CCOCC4)ccnn23)cn1 [Compound 1, 3-[6-(2-methoxyethyl)-3-pyridinyl]-2-methyl-8-(4-morpholinyl)-imidazo[1,2-b]pyridazine] here?
**A.** 0.009 mg/mL (≈ 25.5 µM)

**Q.** What about the solubility ([1]; aqueous buffer, thermodynamic from solid, citrate-NaOH buffer pH 5, pH of solution 5.0, anhydrous free base) of the same compound?
**A.** 0.012 mg/mL (≈ 34 µM)

**Q.** And the solubility ([1]; aqueous buffer, thermodynamic from solid, citrate-NaOH—HCl buffer pH 2, pH of solution 2.9, anhydrous free base)?
**A.** 0.61 mg/mL (≈ 1730 µM)

**Q.** And the solubility ([1]; aqueous buffer, thermodynamic from solid, phosphate buffer pH 7, pH of solution 7.0, anhydrous free base)?
**A.** 0.008 mg/mL (≈ 22.6 µM)

**Q.** What about the solubility ([1]; aqueous buffer, thermodynamic from solid, phosphate-NaOH buffer pH 12, pH of solution 11.9, anhydrous free base) of the same compound?
**A.** 0.008 mg/mL (≈ 22.6 µM)

**Q.** And the solubility ([1]; pH 2.5, simulated gastric fluid, thermodynamic from solid, 0.1N HCl, pH of solution 2.5, anhydrous free base)?
**A.** 2.5 mg/mL (≈ 7070 µM)

**Q.** What about the solubility ([1]; pH 3, simulated gastric fluid, thermodynamic from solid, 0.01N HCl, pH of solution 3.0, anhydrous free base) of the same compound?
**A.** 0.32 mg/mL (≈ 905 µM)

**Q.** And the solubility ([1]; pH 8.7, thermodynamic from solid, water, pH of solution 8.7, anhydrous free base)?
**A.** 0.009 mg/mL (≈ 25.5 µM)

**Q.** What about the solubility ([1]; pH 12.9, aqueous buffer, thermodynamic from solid, 0.1N NaOH, pH of solution 12.9, anhydrous free base) of the same compound?
**A.** 0.008 mg/mL (≈ 22.6 µM)

**Q.** What about the “Average IDR” value [2] of the same compound?
**A.** 0.8170 mg · min^−1 · cm^−2

**Q.** What about the “intrinsic dissolution rate (IDR)” value ([2]; 0.01 M HCl, 100 rpm) of the same compound?
**A.** 0.82 mg·min^−1·cm^−2

**Q.** And the “effects of acute treatment in the NOR task” value [3]?
**A.** selective for the retention phase of the NOR task

**Q.** And the “weight loss during the initial drying step” value [4]?
**A.** 0.06%

**Q.** What about the hygroscopic behavior [4] of the same compound?
**A.** no hygroscopic behavior

**Q.** And the “physical form during the DVS test” value [4]?
**A.** remained the same physical form

**Q.** For COCCc1ccc(-c2c(C)nc3c(N4CCOCC4)ccnn23)cn1.O [Compound 1c, 3-[6-(2-methoxyethyl)-3-pyridinyl]-2-methyl-8-(4-morpholinyl)-imidazo[1,2-b]pyridazine monohydrate], which “Average IDR” value [2] is on record?
**A.** 1.1011 mg · min^−1 · cm^−2

**Q.** What about the “intrinsic dissolution rate (IDR)” value ([2]; 0.01 M HCl, 100 rpm) of the same compound?
**A.** 1.10 mg·min^−1·cm^−2

**Q.** What does the source list for COCCc1ccc(-c2c(C)nc3c(N4CCOCC4)ccnn23)cn1.O=P(O)(O)O [Compound 1d, 3-[6-(2-methoxyethyl)-3-pyridinyl]-2-methyl-8-(4-morpholinyl)-imidazo[1,2-b]pyridazine phosphate]?
**A.** solubility ([1]; aqueous buffer, thermodynamic from solid, borate-KCl—NaOH buffer pH 9, pH of solution 7.4, phosphate salt, read-out: Solubility (mg/mL) of compound 1d): 0.1 mg/mL; solubility ([1]; aqueous buffer, thermodynamic from solid, citrate-NaOH buffer pH 5, pH of solution 4.9, phosphate salt, read-out: Solubility (mg/mL) of compound 1d): 0.14 mg/mL; solubility ([1]; aqueous buffer, thermodynamic from solid, citrate-NaOH—HCl buffer pH 2, pH of solution 2.5, phosphate salt, read-out: Solubility (mg/mL) of compound 1d): 20.2 mg/mL; solubility ([1]; aqueous buffer, thermodynamic from solid, phosphate buffer pH 7, pH of solution 6.8, phosphate salt, read-out: Solubility (mg/mL) of compound 1d): 0.09 mg/mL; solubility ([1]; aqueous buffer, thermodynamic from solid, phosphate-NaOH buffer pH 12, pH of solution 11.2, phosphate salt, read-out: Solubility (mg/mL) of compound 1d): 0.1 mg/mL; solubility compared to the anhydrous free base form (compound 1) ([1]; in vitro results): much higher solubility; solubility ([1]; pH 2.1, simulated gastric fluid, thermodynamic from solid, 0.1N HCl, pH of solution 2.1, phosphate salt, read-out: Solubility (mg/mL) of compound 1d): 46 mg/mL; solubility ([1]; pH 2.5, simulated gastric fluid, thermodynamic from solid, 0.01N HCl, pH of solution 2.5, phosphate salt, read-out: Solubility (mg/mL) of compound 1d): 11.9 mg/mL; solubility ([1]; pH 2.6, thermodynamic from solid, water, pH of solution 2.6, phosphate salt, read-out: Solubility (mg/mL) of compound 1d): 9.7 mg/mL; solubility ([1]; pH 12.5, aqueous buffer, thermodynamic from solid, 0.1N NaOH, pH of solution 12.5, phosphate salt, read-out: Solubility (mg/mL) of compound 1d): 0.1 mg/mL; Average IDR [2]: 2.5172 mg · min^−1 · cm^−2; time until pellets were totally dissolved ([2]; 0.01 M HCl, 100 rpm): ≤ 10 min; intrinsic dissolution rate (IDR) ([2]; 0.01 M HCl, 100 rpm): 2.52 mg·min^−1·cm^−2; weight loss during the initial drying step [4]: 0.3%; hygroscopic behavior [4]: no hygroscopic behavior; physical form during the DVS test [4]: remains crystalline

**Q.** For COCCOc1cncc(-c2c(C)nc3c(-c4ccncc4)ccnn23)c1 [Compound 149, 3-[5-(2-methoxyethoxy)-3-pyridinyl]-2-methyl-8-(4-pyridinyl)-imidazo[1,2-b]pyridazine], which “APO ED50 (mg/kg)” value [5] is on record?
**A.** n.d. (n.d. means the compound was found not active at 2.5 or at 10 mg/kg (the latter being indicated as (a)), taken as threshold value, and was not further tested.)

**Q.** What about the “PDE10A2 pIC50” value [6] of the same compound?
**A.** 6.82

**Q.** Which “T2(A) exploration time of familiar object, retention trial” value ([3]; PCP + 1 mg/kg p.o., mean) does the source give for COc1cc2ncnc(N3CC[C@@H](Oc4cnc5ccccc5n4)C3)c2cc1OC [PQ10] here?
**A.** 7.9 s

**Q.** And the “effects of acute treatment in the NOR task” value [3]?
**A.** selective for the retention phase of the NOR task
